One assay has as its system MDA-MB-468. Put plainly: Cytotoxicity against human MDA-MB-468 cells assessed as reduction in cell viability incubated for 72 hrs by cell-titer blue assay. Format: functional, cell-based. The note with it: MDA-MB-468, 72 h.
Another assay concerns HCT-116. Put plainly: Cytotoxicity against human HCT-116 cells assessed as reduction in cell viability. The assay is classed as functional, cell-based.
Assay [1] concerns the target T1, Protein arginine N-methyltransferase 1 (Homo sapiens, UniProt Q99873). The assay is described as follows: Inhibition of human PRMT1 assessed as methyltransferase activity using Histone H4 /H4 (1-15)-Biotin as substrate.
Assay [2] deals with T1, Protein arginine N-methyltransferase 1. The assay is described as follows: Inhibition of His-tagged PRMT1 (unknown origin) extracted from Escherichia coli BL21 (DE3) cells.
The target in assay [3] is Protein arginine N-methyltransferase 5 (Homo sapiens, UniProt O14744). Put plainly: Inhibition of PRMT5 (unknown origin).
In assay [4] the target is T2, Histone-arginine methyltransferase CARM1 (Homo sapiens, UniProt Q86X55).
T2 sequence (Q86X55 whole entry): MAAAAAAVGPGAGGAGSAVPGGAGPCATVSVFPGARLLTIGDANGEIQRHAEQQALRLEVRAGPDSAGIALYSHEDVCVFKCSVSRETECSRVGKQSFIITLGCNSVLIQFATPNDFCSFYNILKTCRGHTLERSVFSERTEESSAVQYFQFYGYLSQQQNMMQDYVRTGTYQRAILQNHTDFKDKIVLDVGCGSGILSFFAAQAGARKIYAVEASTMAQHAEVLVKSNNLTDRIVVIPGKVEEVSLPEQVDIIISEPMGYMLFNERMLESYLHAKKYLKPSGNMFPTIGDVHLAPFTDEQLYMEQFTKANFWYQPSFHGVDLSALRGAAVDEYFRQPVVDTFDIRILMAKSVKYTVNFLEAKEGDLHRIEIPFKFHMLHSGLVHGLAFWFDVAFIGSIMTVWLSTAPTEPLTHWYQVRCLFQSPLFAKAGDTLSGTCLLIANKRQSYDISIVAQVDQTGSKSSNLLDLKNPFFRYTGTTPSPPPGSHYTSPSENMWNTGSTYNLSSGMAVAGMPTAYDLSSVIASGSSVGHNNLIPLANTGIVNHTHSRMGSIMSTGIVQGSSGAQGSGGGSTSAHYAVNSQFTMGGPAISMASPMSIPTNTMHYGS
The assay is described as follows: Inhibition of PRMT4 (unknown origin).

Assay [5] concerns the target T3, Protein arginine N-methyltransferase 7 (Homo sapiens, UniProt Q9NVM4).
T3 sequence (Q9NVM4 whole entry): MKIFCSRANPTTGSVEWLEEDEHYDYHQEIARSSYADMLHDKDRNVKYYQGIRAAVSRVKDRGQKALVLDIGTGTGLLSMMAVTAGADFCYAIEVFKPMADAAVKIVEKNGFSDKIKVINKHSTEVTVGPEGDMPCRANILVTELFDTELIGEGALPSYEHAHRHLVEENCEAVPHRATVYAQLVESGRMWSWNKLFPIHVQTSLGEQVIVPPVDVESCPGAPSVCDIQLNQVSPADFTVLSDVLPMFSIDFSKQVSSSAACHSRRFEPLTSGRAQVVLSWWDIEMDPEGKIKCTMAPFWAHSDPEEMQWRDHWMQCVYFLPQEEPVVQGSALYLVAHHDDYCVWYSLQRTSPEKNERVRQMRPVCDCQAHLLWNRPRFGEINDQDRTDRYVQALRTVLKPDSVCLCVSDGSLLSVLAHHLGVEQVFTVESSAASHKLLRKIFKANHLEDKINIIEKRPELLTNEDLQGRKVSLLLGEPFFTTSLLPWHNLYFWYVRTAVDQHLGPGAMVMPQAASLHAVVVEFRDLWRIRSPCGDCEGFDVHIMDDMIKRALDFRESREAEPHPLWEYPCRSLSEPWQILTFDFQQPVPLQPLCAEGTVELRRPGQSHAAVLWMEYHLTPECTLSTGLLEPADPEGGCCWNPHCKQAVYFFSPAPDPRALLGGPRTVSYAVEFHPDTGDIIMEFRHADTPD
Put plainly: Inhibition of PRMT7 (unknown origin).

Assay [6] addresses T1, Protein arginine N-methyltransferase 1. Put plainly: Inhibition of PRMT1 (unknown origin).
The target is the same in assay [7]. The assay is described as follows: Inhibition of 6His-tagged PRMT1 (11 to 353 residues) (unknown origin) extracted from Escherichia coli BL21 (DE3) cells.
The target of assay [8] is Protein arginine N-methyltransferase 6 (Homo sapiens, UniProt Q96LA8). Put plainly: Inhibition of PRMT6 (unknown origin).

*1 amine or outer side, *2 acyl side, *3 side chain or, on linkers, in order; H or OH if unused. Where a SMILES comes first, the peptide text is derived from it. [ ]: non-standard residue; d: D form. X2 = N=C(NCCC[C@H](N[*:1])C(=O)[*:2])NCCC[C@H]1O[C@@H](n2cnc3c(N)ncnc32)[C@H](O)[C@@H]1O; Gly(N-(CH2)3-guanidino) = N=C(N)NCCCNCC(=O)O; X1 = N=C(CCl)NCCCN(CC(=O)[*:2])[*:1]; Gly(N-CH2CH2OH) = O=C(O)CNCCO; Nleu = CC(C)CNCC(=O)O; Nlys = NCCCCNCC(=O)O; Sar = CNCC(=O)O Some results are limits rather than exact numbers.

Experimental findings from ChEMBL document CHEMBL6092152, “Overview of PRMT1 modulators: Inhibitors and degraders” (Eur J Med Chem, 2024) are described below.

T1 sequence (Q99873 whole entry): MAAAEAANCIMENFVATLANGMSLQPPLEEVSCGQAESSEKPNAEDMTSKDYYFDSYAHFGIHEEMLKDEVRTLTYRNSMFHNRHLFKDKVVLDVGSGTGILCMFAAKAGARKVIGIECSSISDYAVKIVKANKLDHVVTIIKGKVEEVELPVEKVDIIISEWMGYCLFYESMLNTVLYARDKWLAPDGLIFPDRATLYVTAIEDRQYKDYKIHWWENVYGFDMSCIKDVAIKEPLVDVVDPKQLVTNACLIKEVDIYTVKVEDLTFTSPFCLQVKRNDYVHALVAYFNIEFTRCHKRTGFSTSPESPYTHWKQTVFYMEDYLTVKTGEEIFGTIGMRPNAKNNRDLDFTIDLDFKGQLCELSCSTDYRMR
Sequence of Protein arginine N-methyltransferase 6 (Q96LA8 whole entry): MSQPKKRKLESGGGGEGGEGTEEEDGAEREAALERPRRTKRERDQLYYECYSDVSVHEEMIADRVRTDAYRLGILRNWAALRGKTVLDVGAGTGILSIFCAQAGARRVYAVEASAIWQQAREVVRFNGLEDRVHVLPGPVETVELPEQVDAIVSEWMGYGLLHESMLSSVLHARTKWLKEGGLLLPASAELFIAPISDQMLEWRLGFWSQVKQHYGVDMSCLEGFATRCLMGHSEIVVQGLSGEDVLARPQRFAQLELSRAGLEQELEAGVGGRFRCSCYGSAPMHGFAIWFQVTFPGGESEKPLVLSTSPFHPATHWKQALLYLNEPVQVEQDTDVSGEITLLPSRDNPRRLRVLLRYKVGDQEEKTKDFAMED
Sequence of Protein arginine N-methyltransferase 5 (O14744 whole entry): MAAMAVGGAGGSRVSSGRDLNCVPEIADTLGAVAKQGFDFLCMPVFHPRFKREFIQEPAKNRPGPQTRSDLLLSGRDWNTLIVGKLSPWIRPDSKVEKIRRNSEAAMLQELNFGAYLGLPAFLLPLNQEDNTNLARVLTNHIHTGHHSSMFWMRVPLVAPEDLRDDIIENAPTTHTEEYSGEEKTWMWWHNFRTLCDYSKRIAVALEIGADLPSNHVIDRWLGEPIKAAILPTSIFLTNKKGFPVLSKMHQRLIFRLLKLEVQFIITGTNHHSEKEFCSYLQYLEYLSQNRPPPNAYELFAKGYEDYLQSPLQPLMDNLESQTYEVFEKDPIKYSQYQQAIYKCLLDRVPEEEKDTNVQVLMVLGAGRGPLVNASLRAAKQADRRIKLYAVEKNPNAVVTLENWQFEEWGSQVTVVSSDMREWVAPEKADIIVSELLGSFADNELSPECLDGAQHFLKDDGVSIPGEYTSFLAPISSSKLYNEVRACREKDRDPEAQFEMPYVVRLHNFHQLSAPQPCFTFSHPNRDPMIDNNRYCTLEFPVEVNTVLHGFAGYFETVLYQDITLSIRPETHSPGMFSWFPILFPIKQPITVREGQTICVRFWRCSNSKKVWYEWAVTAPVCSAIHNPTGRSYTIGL

As to `CC(C)CN(CC(=O)NCC(=O)N(CCCCN)CC(=O)NCC(=O)NCC(=O)N(C)CC(=O)N(CCCCN)CC(N)=O)C(=O)CNC(=O)CN(CCCCN)C(=O)CNC(=O)CNC(=O)CN(CCCCN)C(=O)CNC(=O)CN(CCCNC(=N)CCl)C(=O)CNC(=O)CNCCO` (H-[Gly(N-CH2CH2OH)]G[X1]G[Nlys]GG[Nlys]G[Nleu]G[Nlys]GG[Sar][Nlys]-NH2), the IC50 in the assay with MDA-MB-468 and in the assay with HCT-116 was greater than 500 µM each time.
Regarding `CC(=O)N(CCO)CC(=O)NCC(=O)N(CCCNC(=N)CCl)CC(=O)NCC(=O)N(CCCCN)CC(=O)NCC(=O)NCC(=O)N(CCCCN)CC(=O)NCC(=O)N(CC(=O)NCC(=O)N(CCCCN)CC(=O)NCC(=O)NCC(=O)N(C)CC(=O)N(CCCCN)CC(N)=O)CC(C)C` (Ac-[Gly(N-CH2CH2OH)]G[X1]G[Nlys]GG[Nlys]G[Nleu]G[Nlys]GG[Sar][Nlys]-NH2), the IC50 was greater than 500 µM in the assay on MDA-MB-468, 8.73 µM in [1] and greater than 500 µM in the assay with HCT-116.
For the compound `O=C1Nc2cnc(Nc3ccc(N4CCC(O)CC4)cc3)nc2N2c3ccccc3C[C@@H]12`, in assay [2], the midpoint of inhibition, the IC50, lay at 0.27 µM.
In the case of `N=C(N)NCCC[C@H](NC(=O)CN)C(=O)N[C@@H](CCCNC(=N)NCCCSC[C@H]1O[C@@H](n2cnc3c(N)ncnc32)[C@H](O)[C@@H]1O)C(N)=O`, the IC50 in [3] is 0.0004 µM; in assay [4], 0.0028 µM; in assay [5], 0.0004 µM; in assay [6], 5.9 µM.
Compound `N=C(NCCCSC[C@H]1O[C@@H](n2cnc3c(N)ncnc32)[C@H](O)[C@@H]1O)NCCC[C@H](N)C(N)=O` registered an IC50 in assay [6] of 3 µM.
The same measure, in the same setting: next, `CC(C)CN(CC(=O)NCC(=O)N(CCCCN)CC(=O)NCC(=O)NCC(=O)N(C)CC(=O)N(CCCCN)CC(N)=O)C(=O)CNC(=O)CN(CCCCN)C(=O)CNC(=O)CNC(=O)CN(CCCCN)C(=O)CNC(=O)CN(CCCNC(=N)N)C(=O)CNC(=O)CNCCO` (H-[Gly(N-CH2CH2OH)]G[Gly(N-(CH2)3-guanidino)]G[Nlys]GG[Nlys]G[Nleu]G[Nlys]GG[Sar][Nlys]-NH2): 396 µM.
On to `NS(=O)(=O)c1ccc(CCNC/C=C/c2ccccc2)cc1`, for which the midpoint of inhibition in [7], the IC50, lay at 26.2 µM.
As to `CC(=O)N[C@@H](CO)C(=O)NCC(=O)N[C@@H](CCCNC(=N)NCCC[C@H]1O[C@@H](n2cnc3c(N)ncnc32)[C@H](O)[C@@H]1O)C(=O)NCC(=O)N[C@@H](CCCCN)C(=O)NCC(=O)NCC(=O)N[C@@H](CCCCN)C(N)=O` (Ac-SG[X2]GKGGK-NH2), the IC50 is 11 µM in assay [8] and 5.36 µM in assay [6].

As usually defined, the IC50 is the concentration that gives 50% inhibition.
